Laboratory results taken from patent publication US8188109B2, “Benzoquinolizinium salt derivatives as anticancer agents” (Naxospharma S.r.l., priority 2009, dated 2012).
Like-named read-outs stand apart in the source and are kept apart here.

Assays:
[1] = system: cDDP-resistant C13* subline; experiment: Cell growth assay (crystal violet dye), C13* cells; type: cell-based, human; settings: read-out: IC50 (cell growth inhibition)
Method: (§1) For the determination of the in vitro antitumour activities, the compounds of the invention were assayed in a panel of sensible, resistant and refractary tumour cell lines, which are only exemplary for the antitumour activity of the inventive compounds, and are not to be construed as limiting their antitumour activities only to the cell lines set forth herein. Cell lines. The 2008 cell line was established from a patient with serous cystadenocarcinoma of the ovary and the cDDP-resistant C13* subline, about 15-fold resistant to cDDP, was derived from the parent 2008 cell line by monthly exposure to cDDP, followed by chronic exposure to step-wise increases in cDDP concentration (Cancer Research 52, 1895, 1992). The cell lines were grown as monolayers in RPMI 1640 medium containing 10% heat-inactivated fetal bovine serum and 50 μg/mL gentamycin sulfate. All cell media and serum were purchased from (Lonza, Verviers, Belgium). Cultures were equilibrated with humidified 5% CO2 in air at 37° C. All studies were performed in Mycoplasma negative cells, as routinely determined with the MycoAlert Mycoplasma detection kit (Lonza, Walkersville, Md., USA).
(§2) Cell growth assay. Cell growth was determined by a modification of the crystal violet dye assay (Analytical biochemistry, 182, 16 1989). On selected days, after removal of the tissue culture medium, the cell monolayer was fixed with methanol prior to staining with 0.2% crystal violet solution in 20% methanol for at least 30 minutes. After washing several times with distilled water to remove the dye excess, the cells were let to dry. The incorporated dye was solubilized in acidic isopropanol (1N HCl : 2-propanol, 1:10). After appropriate dilution, dye was determined spectrophotometrically at 540 nm. The extracted dye was proportional to cell number. Percentage of cytotoxicity was calculated by comparing the absorbance of cultures exposed to the compounds of the invention to non-exposed (control) cultures. Percentage of cytotoxicity is here reported as the half maximal inhibitory concentration (IC50), which is a measure of the effectiveness of a compound of the invention in inhibiting cell growth by half with respect to control (100%).

[2] = system: 2008 cell line (serous cystadenocarcinoma of the ovary); experiment: Cell growth assay (crystal violet dye), 2008 cells; type: cell-based, human; settings: read-out: IC50 (cell growth inhibition)
Method: as §1, §2

[3] = system: human ovarian cancer cell line A2780; experiment: Cell growth assay (crystal violet dye), A2780 cells; type: cell-based; settings: 72 hrs exposure, read-out: IC50 (cell growth inhibition)
Method: (§3) The human ovarian cancer cell line A2780 and a platinum-resistant subline selected in vitro by stepwise increases of cisplatin concentration in the medium were from University of Modena and Reggio Emilia. The cisplatin resistant A2780 cells were challenged weekly with 50 uM cisplatin for 1 hr. Both cell lines were maintained in RPMI 1640 medium with 10% (vol/vol) fetal calf serum, penicillin (62.9 mg/L), and streptomycin (100 mg/L) (GIBCO).
as §2

[4] = system: cisplatin resistant A2780 cells (A2780/CP); experiment: Cell growth assay (crystal violet dye), A2780/CP cells; type: cell-based, human; settings: 72 hrs exposure, read-out: IC50 (cell growth inhibition)
Method: as §3, §2

[5] = system: HCT 116 colon carcinoma cell line; experiment: Cell proliferation MTT assay, HCT 116; type: cell-based; settings: Homo sapiens, HCT-116, 24 h, read-out: MTT cell proliferation, percentage compared to control cells considered as 100%; for activity at 1 µM: HCT 116, compound at 1 uM, 24 h exposure; for activity at 10 µM: HCT 116, compound at 10 uM
Method: (§4) Cell cultures and treatments. Human tumor cells (HeLa from uterin cervix and HCT116 from colon carcinoma) were grown at 37° C. in humidified atmosphere containing 5% CO2 in D-MEM supplemented with 10% FCS, 4 mM glutamine, 2 mM Na pyruvate, 100 U/mL penicillin and 0.1 mg/mL streptomycin (all reagents were from Celbio, Pero, Italy). HeLa cells are the most widely used human tumor cell line; HCT 116 colon carcinoma cell line has proven to be extremely resistant to conventional chemotherapy. Cells were treated with the compounds of the invention at a fixed dose of 10 uM for 24 h, eventually followed by 24 of recovery in drug free medium. As a positive control of growth inhibition, cells were treated with 10 uM etoposide. Some of the inventive were also assayed at a dose of 1 uM.
(§5) Cell proliferation assays—MTT assay. Cells are seeded in 96 multiwell-plates at the density of 10^3/100 μl (except fibroblasts that are seeded at the density of 1.5×10^3/100 μl). Cells are treated 24 h later with the drug for 24 h eventually followed by 24 h of recovery in drug-free medium. At the end of the treatments, 20 μl of CellTiter 96 Non-Radioactive Cell Proliferation Assay (MTT; Promega, Milano, Italy) are added to each well. Plates are then incubated for 4 h at 37° C. in the dark and analyzed with a reader of microplates (Gio. De Vita, Roma, Italy) at 492 nm. Experiments are performed in quadruplicate and repeated three times. Data are expressed in the following Tables 2a-c as the percentage compared to control cells considered as 100%.

HeLa cells = experiment: Cell proliferation MTT assay, HeLa; type: cell-based; settings: Homo sapiens, 24 h, read-out: MTT cell proliferation, percentage compared to control cells considered as 100%; for activity at 1 µM: compound at 1 uM; for activity at 10 µM: compound at 10 uM
Method: as §4, §5

tumour cell lines = experiment: In vitro antitumour activity, panel of tumour cell lines (statement in words); type: cell-based, human; settings: compared with the novel compounds / prior art protoberberines
Method: as §1

[6] = Homo sapiens, C13* cells, 72 hrs exposure
[7] = Homo sapiens, 2008 cells, 72 hrs exposure
[8] = 24 h + 24 h recovery in drug-free medium

Compound | IC50 [2, 7] | IC50 ([3]; Homo sapiens) | IC50 ([4]; Homo sapiens, A2780C/P) | IC50 [1, 6] | IC50 ([1]; Homo sapiens, C13, 72 h) | activity at 1 µM [5] | activity at 10 µM [5, 8] | activity at 10 µM ([5]; 24 h) | IC50 ([2]; Homo sapiens, 72 h) | activity at 1 µM (HeLa cells; [8]) | activity at 1 µM (HeLa cells) | activity at 10 µM (HeLa cells; [8]) | activity at 10 µM (HeLa cells) | antitumour activity (in words) (tumour cell lines) | IC50 ([1]; C13* cells, 72 hrs exposure) | IC50 [3] | IC50 [4] | IC50 ([2]; 2008 cells, 72 hrs exposure)
O=c1[nH]cc(F)c(=O)[nH]1 [5-FU, 5-fluoro-2,4(1H,3H)-pyrimidinedione, reference compound] | 10 µM | – | – | 8 µM | – | – | – | – | – | – | – | – | – | – | – | – | – | –
COc1ccc2cc3[n+](cc2c1OC)CCc1cc2c(cc1-3)OCO2 [Berberine, 9,10-dimethoxy-5,6-dihydrobenzo[g]-1,3-benzodioxolo[5,6-a]quinolizinium chloride, reference compound] | – | 4 µM | 2.5 µM | – | 6 µM | 201% | 93.3% | 166% | 10 µM | 168% | 178% | 92.9% | 121% | – | – | – | – | –
COc1ccc2c(Cc3ccccc3)c3[n+](cc2c1OC)CCc1cc2c(cc1-3)OCO2.[I-] [Comp Ex, 13-benzyl-9,10-dimethoxy-5,6-dihydrobenzo[g]-1,3-benzodioxolo[5,6-a]quinolizinium iodide, reference compound] | 9.2 µM | 2.5 µM | 3.3 µM | 5 µM | – | 119% | 22.2% | 20.4% | – | 93.6% | 139% | 74.5% | 98% | much lower antitumour activity | – | – | – | –
COc1cc([C@@H]2c3cc4c(cc3[C@@H](O[C@@H]3O[C@@H]5CO[C@@H](C)O[C@H]5[C@H](O)[C@H]3O)[C@H]3COC(=O)[C@H]23)OCO4)cc(OC)c1O [Etoposide, 4′-demethylepipodophyllotoxin 9-[4,6-O-ethylidene-beta-D-glucopyranoside], reference compound] | – | – | – | – | – | 139% | 96.2% | 104% | – | 59.5% | 94.3% | 1% | 74.8% | – | – | – | – | –
COc1ccc2c(CCc3c[nH]c4ccccc34)c3[n+](cc2c1OC)CCc1cc2c(cc1-3)OCO2 [NAX019, 13-[2-(indol-3-yl)ethyl]-9,10-dimethoxy-5,6-dihydrobenzo[g]-1,3-benzodioxolo[5,6-a]quinolizinium iodide] | – | – | – | – | – | – | 32.1% | 6% | – | – | – | 33.5% | 62.8% | – | – | – | – | –
N.N.[Cl][Pt][Cl] [cDDP, cis-diaminedichloroplatinum, reference compound] | – | – | – | – | – | – | – | – | – | – | – | – | – | – | 17 µM | 2 µM | 20 µM | 3.6 µM

The next lines start with results.

IC50 [2, 7] | IC50 ([3]; Homo sapiens) | IC50 ([4]; Homo sapiens, A2780C/P) | Compound | IC50 [1, 6] | IC50 ([1]; Homo sapiens, C13, 72 h) | activity at 1 µM [5] | activity at 10 µM [5, 8] | activity at 10 µM ([5]; 24 h) | IC50 ([2]; Homo sapiens, 72 h) | activity at 1 µM (HeLa cells; [8]) | activity at 1 µM (HeLa cells) | activity at 10 µM (HeLa cells; [8]) | activity at 10 µM (HeLa cells) | antitumour activity (in words) (tumour cell lines) | IC50 ([1]; C13* cells, 72 hrs exposure) | IC50 [3] | IC50 [4] | IC50 ([2]; 2008 cells, 72 hrs exposure)
3.6 µM | 0.6 µM | 0.6 µM | COc1ccc2c(CCCc3ccccc3)c3[n+](cc2c1OC)CCc1cc2c(cc1-3)OCO2 [NAX012, 13-(3-phenylpropyl)-9,10-dimethoxy-5,6-dihydrobenzo[g]-1,3-benzodioxolo[5,6-a]quinolizinium iodide] | 2.2 µM | – | 52.1% | 34.8% | 0% | – | – | – | 41.3% | 72.4% | – | – | – | – | –
6.6 µM | 1 µM | 1 µM | COc1ccc(CCc2c3[n+](cc4c(OC)c(OC)ccc24)CCc2cc4c(cc2-3)OCO4)cc1 [NAX013, 13-[2-(4-methoxyphenyl)ethyl]-9,10-dimethoxy-5,6-dihydrobenzo[g]-1,3-benzodioxolo[5,6-a]quinolizinium iodide] | 2.4 µM | – | 58.1% | 60.2% | 10% | – | – | – | 60.8% | 74.5% | – | – | – | – | –
5.8 µM | 1.4 µM | 1 µM | COc1ccc2c(CCc3ccc(Cl)cc3)c3[n+](cc2c1OC)CCc1cc2c(cc1-3)OCO2 [NAX014, 13-[2-(4-chlorophenyl)ethyl]-9,10-dimethoxy-5,6-dihydrobenzo[g]-1,3-benzodioxolo[5,6-a]quinolizinium iodide] | 1.8 µM | – | – | 15.4% | 49.5% | – | 59.4% | 92.1% | 45.4% | 71.9% | – | – | – | – | –
4 µM | 0.4 µM | 1 µM | COc1ccc2c(CCC(c3ccccc3)c3ccccc3)c3[n+](cc2c1OC)CCc1cc2c(cc1-3)OCO2 [NAX018, 13-(3,3-diphenylpropyl)-9,10-dimethoxy-5,6-dihydrobenzo[g]-1,3-benzodioxolo[5,6-a]quinolizinium iodide] | 0.66 µM | – | 68.2% | 13.7% | 30.6% | – | 45.8% | 64% | 11.3% | 40.6% | – | – | – | – | –
– | 4.5 µM | 2.5 µM | COc1ccc2c(CC(=O)n3ccc4cc(Cl)ccc43)c3[n+](cc2c1OC)CCc1cc2c(cc1-3)OCO2 [NAX030, 13-[(5-chloroindol-1-yl)carbonylmethyl]-9,10-dimethoxy-5,6-dihydrobenzo[g]-1,3-benzodioxolo[5,6-a]quinolizinium iodide] | – | – | – | – | – | – | – | – | – | – | – | – | – | – | –
